Read-outs that look alike come from different tables or passages of the source.
What was measured:
[1] = test system: citrate synthase activity (mitochondrial capacity); assay: Citrate synthase activity in tissues of treated DIO mice; type: in vivo, C57BL/6 mice
Experimental: Citrate synthase (CS) activity in skeletal muscle (gastrocnemius) and white adipose tissue (epididymal) was determined after 11 weeks of treatment using the method described by Srere (Citrate synthase, Methods Enzymol. 1969, 13: 3-5) and Moyes et al. (Moyes CD, Mathieu-Costello 0A, Tsuchiya N, Filbum C, and Hansford RG. Mitochondrial biogenesis during cellular differentiation. Am. J. Physiol. 1997, 272 (Cell Physiol. 41): C1345-C1351.
Citrate Synthase is an enzyme of the Krebs cycle (also called […], TCA, or citric acid) cycle whose maximal activity (capacity) reflects mitochondrial oxidative capacity of the sample (Holloszy et al. 1970, Williams et al. 1986, Hood et al. 1989). […] Irrespective of this latter remark, changes in citrate synthase activity over time in a given individual reflect changes in tissue mitochondrial oxidative capacity. The five mice best representing the mean fasting blood glucose level of each group (DIO Vehicle and DIO SRT1933) were selected for this analysis. The tissues were lyzed in lx Extraction Buffer (20 mM N-2-hydroxyethylpiperazine-N′-2-2ethanesulfonic acid (HEPES), pH 7.2, 0.1% Triton X-100 and 1 mM EDTA with a polytron tissue homogenizer (OMNI International GLH) for 30 seconds at maximum speed (setting 6) on ice. A low-speed (13,000 rpm, microfuge) centrifugation step was then used to pellet big cell debris. The supernatant was used to assess citrate synthase activity. The samples are freeze-thawed 2 times to break the mitochondrial membrane and allow access to citrate synthase. Sample protein concentrations were determined according to the supplier's instructions, with Bio-Rad Protein Assay Dye Reagent Concentrate (cat#500-0006, […]) with Protein Standard I, bovine gamma globulin (cat#500-0005, […]) as standard. The citrate synthase activity assay was performed in a final total volume of 300 μl with 100 μg of protein per sample, measured in triplicate.
Citrate synthase catalyzes the reaction between acetyl coenzyme A (acetyl CoA) and oxaloacetic acid (OAA) to form citric acid. […]

[2] = test system: diet induced obese (DIO) mouse; assay: Diet Induced Obesity (DIO) mouse model; type: in vivo, C57BL/6 mice; details: for plasma insulin: SRT1933 100 mg/kg, rosiglitazone 5 mg/kg once daily oral
Experimental: The vehicle used was 2% HPMC −0.2% DOSS. Individual mouse body weights were measured twice weekly. Every 2 weeks throughout the study, mice from each group were bled via the tail vein for determination of blood glucose and blood plasma insulin. After 1, 3 and 5 weeks of dosing, a fasted blood glucose measure was taken and after 5 weeks of treatment an IPGTT was conducted on all mice from each of the groups. After 9 weeks of treatment, an ITT was conducted and a rectal body temperature was taken on all mice from each of the groups. Statistical analysis was completed using the JMP program (Version 6). Data were analyzed by a one way ANOVA with comparison to control using a Dunnett's Test. A p value <0.05 indicated a significant difference between groups.

Human SIRT1 = molecular target: T1, Human SIRT1 (Homo sapiens, UniProt Q96EB6); assay: SIRT1 mass spectrometry deacetylase assay; type: biochemical
T1 construct: hexa-histidine (N); made in house; host or cells: E. coli BL21(DE3)Star
T1 sequence (Q96EB6 1-747): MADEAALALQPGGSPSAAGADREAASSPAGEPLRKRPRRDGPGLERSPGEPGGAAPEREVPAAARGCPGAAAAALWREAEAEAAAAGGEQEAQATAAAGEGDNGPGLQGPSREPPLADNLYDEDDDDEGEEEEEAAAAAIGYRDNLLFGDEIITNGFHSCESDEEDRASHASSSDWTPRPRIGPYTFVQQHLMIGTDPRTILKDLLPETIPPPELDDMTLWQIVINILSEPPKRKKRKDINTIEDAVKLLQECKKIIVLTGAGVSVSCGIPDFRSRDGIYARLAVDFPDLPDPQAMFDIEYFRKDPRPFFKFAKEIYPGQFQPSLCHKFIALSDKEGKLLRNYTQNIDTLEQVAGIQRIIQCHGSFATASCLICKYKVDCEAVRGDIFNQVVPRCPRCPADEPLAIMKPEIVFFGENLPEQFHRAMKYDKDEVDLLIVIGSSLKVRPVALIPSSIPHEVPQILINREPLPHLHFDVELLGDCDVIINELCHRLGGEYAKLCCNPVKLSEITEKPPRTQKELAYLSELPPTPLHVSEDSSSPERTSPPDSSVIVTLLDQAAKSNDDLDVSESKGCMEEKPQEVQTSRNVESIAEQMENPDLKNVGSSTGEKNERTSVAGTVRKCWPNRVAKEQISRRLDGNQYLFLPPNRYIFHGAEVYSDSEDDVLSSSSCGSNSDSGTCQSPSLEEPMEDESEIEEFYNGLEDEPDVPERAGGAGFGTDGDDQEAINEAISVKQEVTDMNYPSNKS
Description: The following example describes methods for the identification and characterization of Sirt1 activators. Human SIRT1 is expressed from the pSIRT1FL vector which places expression under the control of the T7 promoter. The protein was expressed in E. coli BL21(DE3)Star as an N-terminal fusion to a hexa-histidine affinity tag. The expressed protein was purified by Ni^2+-chelate chromatography. The eluted protein was then purified by size exclusion chromatography followed by ion exchange. The resulting protein was typically >95% pure as assessed by SDS-PAGE analysis. The mass spectrometry based assay utilizes a peptide having 20 amino acid residues as follows: Ac-Glu-Glu-Lys(Biotin)-[…]Ac)-Nle-Ser-Thr-Glu-Gly-Lys(5TMR)-Glu-Glu-NH2 (SEQ ID NO:2) wherein K(Ac) is an acetylated lysine residue and Nle is a norleucine. The peptide is labeled with the fluorophore 5TMR (excitation 540 nm/emission 580 nm) at the C-terminus for use in the FP assay described above. The sequence of the peptide substrate is based on p53 with several modifications.
The mass spectrometry assay was conducted as follows: 0.5 μM peptide substrate and 120 μM βNAD^+ was incubated with 10 nM SIRT1 for 25 minutes at 25° C. in a reaction buffer (50 mM Tris-acetate pH 8, 137 mM NaCl, 2.7 mM KCl, 1 mM MgCl2, 5 mM DTT, 0.05% BSA). Test compounds were added to the reaction or vehicle control, DMSO. After the incubation with SIRT1, 10% formic acid was added to stop the reaction. Determination of the mass of the substrate peptide allows for precise determination of the degree of acetylation (i.e. starting material) as compared to deacetylated peptide (product).
The activity of an exemplary compound against SIRT1 enzyme was profiled using a mass spectrometry readout. In this assay the conversion of acetylated peptide substrate to deacetylated peptide product is tracked by monitoring the change in mass ([…]) upon loss of the acetyl group. […]

[3] = test system: diet induced obese (DIO) mouse; assay: Diet Induced Obesity (DIO) mouse model; type: in vivo, C57BL/6 mice; details: DIO mice
[4] = Plasma exposure after oral gavage in mice; type: in vivo, C57BL/6 mice; details: 100 mg/kg once daily by oral gavage, each day
Experimental: The following example describes the in vivo effects of a novel SIRT1 activator. The compound was administered via oral gavage at the doses indicated in FIG. 2a in […] male mice, 18-22 grams (Wilmington, Mass. Charles River Labs), 3 mice per group and blood plasma was collected at 5, 30, 120 and 360 minute time points. The compound was administered in 2% HPMC+0.2% DOSS. Mice were sacrificed at proper time points using CO2 overdose (place in CO2 chamber 40 seconds before time point). Blood was collected in microtainer blood tubes with Lithium Heparin and plasma separator and frozen plasma was sent to Charles River Labs (CRL) for analysis. To determine oral bioavalability, the compound was administered into the tail vein at 0.1, 0.3 and 1.0 mg/kg doses in C57BL/6 male mice, 18-22 grams (Wilmington, Mass. Charles River Labs), 3 mice per group and blood plasma was collected at 5, 30, 120 and 360 minute time points. Compounds were administered in 10% ethanol/ 40% Polyethylene glycol/50% H2O for IV studies. Mice were sacrificed at proper time points using CO2 overdose (place in CO2 chamber 40 seconds before time point). Blood was collected and analyzed as described above.

| Compound | increase in citrate synthase activity ([1]; gastrocnemius muscle, DIO mice, after 11 weeks of treatment) | citrate synthase activity in adipose tissue ([1]; n=5, after 11 weeks (FIG. 2g)) | mitochondrial capacity (citrate synthase activity) in skeletal muscle ([1]; n=5, after 11 weeks (FIG. 2g)) | nonfasting blood glucose levels ([2]; DIO mice, 100 mg/kg once daily oral, by week 2, maintained over 10 week period) | insulin sensitivity relative to vehicle assessed by ITT ([2]; DIO mice, ITT after 9 weeks of treatment) | fasting blood glucose levels ([2]; DIO mice, once daily oral dosing) | plasma insulin ([2]; DIO mice) | body temperature ([2]; SRT1933 treated groups (FIG. 2f)) | lowering of core body temperature ([2]; both DIO mice and normal chow fed mice) | effect on insulin levels ([2]; mice fed a normal chow diet, over the course of the study) | Emax (Human SIRT1; at the highest doses of compound tested, read-out: maximum activation) | EC1.5 (Human SIRT1; read-out: EC1.5 (concentration of compound required to increase enzyme activity by 50%), mass spectrometry readout, 10 nM SIRT1, 0.5 μM peptide substrate, 120 μM βNAD+) | EC1.5 (Human SIRT1; read-out: EC1.5, as quoted in legend of FIG. 2a) | glucose tolerance in an OGTT relative to vehicle [3] | glucose excursion in OGTT (AUC) ([3]; after 5 weeks of treatment, SRT1933 100 mg/kg, rosiglitazone 5 mg/kg once daily oral) | duration of exposure above EC1.5 [4] |
| --- | --- | --- | --- | --- | --- | --- | --- | --- | --- | --- | --- | --- | --- | --- | --- | --- |
| O=C(Nc1ccccc1-c1cn2c(CN3CCNCC3)csc2n1)c1cnc2ccccc2n1 [SRT1933] | 15% | trend | significant increase | normalized | improvement in insulin sensitivity | normalized | 2.1 ± 0.1 ng/mL | decreased | ~1 °C | did not have a significant effect | > 900% | 160 nM | 440 nM | improved glucose tolerance | 462 ± 25 mg·h/dL | at least 16 hours |
| CN(CCOc1ccc(CC2SC(=O)NC2=O)cc1)c1ccccn1 (centres unmarked) [rosiglitazone, reference compound] |  |  |  |  |  |  | 0.9 ± 0.1 ng/mL |  |  |  |  |  |  |  |  |  |
